Source: patent publication US20240199555A1, “APPLICATIONS OF BIASED LIGANDS OF THE SEROTONIN 5-HT7 RECEPTOR FOR THE TREATMENT OF PAIN, MULTIPLE SCLEROSIS AND THE CONTROL OF THERMOREGULATION” (Centre National de la Recherche Scientifique, priority 2021, published 2024)
pIC50, pKi: −log10 of the molar value.

What was measured:
5-HT7R / β-arrestin2 = 5-HT7R / β-arrestin2 (Homo sapiens (Human), UniProt P34969); assay: β-arrestin 2 BRET in HEK-293 cells transfected with 5-HT7R; format: cell-based; conditions: wild type 5-HT7R, intramolecular biosensor
Description: FIG. 8: Serodolin-induced ERK phosphorylation is dependent on β-arrestin 2 recruitment. (A) HEK-293 or KO β-arrestin HEK-293 cells were transiently transfected with HA-5-HT7R and stimulated with 5-CT (10 μM), Serodolin (10 μM) or Vehicle (0.1% DMSO diluted in PBS solution) used as a control for 7 min. Representative blots of three independent experiments are illustrated. (B) Quantification of p-ERK and p-c-SRC were performed using Alphascreen technology. Data are means±SEM of values obtained in three independent experiments. (C) HEK-293 cells were transiently transfected with HA-h5-HT7R with β-arrestin2 BRET biosensor (Rluc-Arrestin-YPET), then incubated with increasing doses of 5-CT, or Serodolin (10^-11 to 10^-5 M). Ligand mediated BRET changes are expressed as induced BRET changes which were generated by subtracting at each point the signal of the cells incubated with PBS (without ligand). Data were fitted using non-linear regression using GraphPad Prism software. […]
The inventors then investigated whether the Serodolin-induced β-arrestin recruitement using BRET experiments. […] After transfection of 5-HT7R-RLuc and arrestin2-YFP used as a BRET pair, the inventors evaluated the ability of 5-HT7R ligands to recruit β-arrestin. […]

human 5-HT1A receptor = human 5-HT1A receptor (Homo sapiens (Human), UniProt P08908); assay: Radioligand binding competition, 5-HT1A; conditions: selectivity panel
Description: FIG. 14: Testing of 8 molecules for radioligand binding competition activity on recombinant human 5-HT1A, 5-HT2A, 5-HT2Cedited, 5-HT6, 5-HT7 and D2(long) receptors using filtration binding assays.
Radioligand Binding experiments were conducted with Epics Therapeutics membrane preparations. Receptor accession numbers, cellular background and reference compounds are shown in this table.
The new compounds have been tested by radioligand binding competition activity at the human 5-HT1A (FAST-0500B), 5-HT2A (FAST-0505B), 5-HT2Cedited (FAST-0507B), 5-HT6 (FAST-0509B), 5-HT7a (FAST-05111B) and D2(long) (FAST-0101B) receptors at seven (7) concentrations, in duplicate. […] Reference values thus obtained for the test were compared to historical values obtained from the same receptor and used to validate the experimental session. For replicate determinations, the maximum variability tolerated in the test was of +/−20% around the average of the replicates.
Dose-response data from test compounds were analyzed with XLfit (IDBS) software using nonlinear regression applied to a sigmoidal dose-response model and the following equation: • XL Fit fit Model 203: 4 Parameter Logistic Model • A: Bottom • B: TOP • C: LogEC50 • D: Hill

human 5-HT1A receptor, sequence (P08908 whole entry): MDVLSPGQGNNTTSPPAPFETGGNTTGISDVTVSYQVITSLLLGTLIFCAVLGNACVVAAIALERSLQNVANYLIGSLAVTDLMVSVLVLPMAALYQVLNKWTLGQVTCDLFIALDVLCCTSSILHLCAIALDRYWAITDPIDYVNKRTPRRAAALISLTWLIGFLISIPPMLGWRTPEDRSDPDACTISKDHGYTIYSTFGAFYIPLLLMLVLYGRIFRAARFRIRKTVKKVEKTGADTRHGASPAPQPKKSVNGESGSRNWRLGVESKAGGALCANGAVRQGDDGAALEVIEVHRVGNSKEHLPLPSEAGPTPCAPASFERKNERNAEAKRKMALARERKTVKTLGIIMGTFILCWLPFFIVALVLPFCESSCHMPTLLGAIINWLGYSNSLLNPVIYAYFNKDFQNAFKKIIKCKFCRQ
5-HT7R / β-arrestin2, sequence (P34969 1-432): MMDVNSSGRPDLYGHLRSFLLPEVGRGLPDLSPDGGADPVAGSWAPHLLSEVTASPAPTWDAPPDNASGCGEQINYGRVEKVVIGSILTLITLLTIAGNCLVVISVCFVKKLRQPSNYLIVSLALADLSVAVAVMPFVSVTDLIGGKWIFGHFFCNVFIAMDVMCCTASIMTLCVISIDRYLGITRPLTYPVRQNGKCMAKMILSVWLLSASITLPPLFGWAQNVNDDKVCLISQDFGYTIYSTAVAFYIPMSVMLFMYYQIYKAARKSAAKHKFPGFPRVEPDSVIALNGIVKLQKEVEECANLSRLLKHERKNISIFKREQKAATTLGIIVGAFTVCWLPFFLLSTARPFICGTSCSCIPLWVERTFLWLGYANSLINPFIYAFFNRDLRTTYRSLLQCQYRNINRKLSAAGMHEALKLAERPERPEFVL

With `O=c1[nH]c2ccccc2n1CN1CCN(c2ccc(F)cc2)CC1` [Serodolin] the “BRET signal of RLuc-arrestin2-YPET biosensor” value (5-HT7R / β-arrestin2) was “concentration-dependent increase of BRET signal”, the pIC50 (human 5-HT1A receptor; read-out: RLB 5-HT1A IC50) was 6.69 and the pKi (human 5-HT1A receptor; read-out: RLB 5-HT1A Ki) was 6.99.
